From patent publication US4895589A, “Heterocyclic compounds” (Imperial Chemical Industries PLC, priority 1985, dated 1990)
Read-outs that look alike come from different tables or passages of the source.

Assays:
Spring Barley = experiment: Intermediate Retardant Test, spring barley; format: in vivo, Spring Barley (Atem/kym); conditions: Hordeum vulgare, 672 h, ~28 days, read-out: Percentage Reduction in Height of Spring Barley (Compared to formulation blank)
Experimental: (§1) Three species are involved in this test RICE, SPRING-BARLEY and APPLES. The variety and growth stages at spray are outlined in Table VI. Compounds were applied at 1000 ppm and 4000 ppm respectively (1 kg and 4 kg ha^-1 at a field volume of 1000 l/ha^-1) as an overall spray. This gives a foliar and root component in the test, i.e. this test will detect the activity of both root and foliar acting compounds. The rice was grown in 4" `paddy` pots, i.e. the roots and bottom of the stems are immersed in water under conditions corresponding to those in paddy fields. Spring barley and apples were grown in 4" pots. The plants were assessed for height to top-most ligule at approximately 28 days after treatment for spring barley and rice and for height to apex at approximately 28 days after the treatment for apples. In each case the result for the 1000 ppm and 4000 ppm test for each compound is compared to the height of the formulation blank in that test, presented as a percentage reduction in height compared to the formulation blank.
as §1, with “in Table XIV. Compounds were” for “in Table VI. Compounds were”, “that test, and presented as” for “that test, presented as”

Rice [1] = experiment: Intermediate Retardant Test, rice; format: in vivo, Rice (Ishikari); conditions: Oryza sativa, 672 h, ~28 days, read-out: Percentage Reduction in Height of Rice (Compared to formulation blank)
Experimental: as §1
as §1, with “in Table XIV. Compounds were” for “in Table VI. Compounds were”, “that test, and presented as” for “that test, presented as”

Wheat [2] = experiment: Whole Plant Screen (2), wheat; format: in vivo, Wheat (Timmo); conditions: WW, 4000 ppm
Experimental: (§2) Compound numbers 12-13, 16-17 and 19-20 were tested on an alternative whole plant screen (2). The compounds were tested for plant growth regulator activity against five species for various growth effects relevant to plant growth regulation.
The plant species used in this screen are presented in Table IV with the leaf stage at which they were sprayed. Each chemical was applied at 4000 ppm (4 kg/ha in a 1000 l/ha field volume) using a tracksprayer and a SS8004E (Teejet) nozzle. […]
After 2-6 weeks in the glasshouse, depending on the time of year, the plants were visually assessed for morphological characteristics. Formulation blanks were used as controls to assess the plants. […]

Maize = experiment: Whole Plant Screen (2), maize; format: in vivo, Maize (Earliking); conditions: MZ, 4000 ppm
Experimental: as §2
The plant species used in this screen are presented in Table IV with the leaf stage at which they were sprayed. Each chemical was applied at 4000 ppm (4 kg/ha in a 1000 l/ha field volume) using a tracksprayer and a SS8004E (Teejet) nozzle.
(§3) After spray the plants were grown in a glasshouse with 25° C. day 22° C. night temperatures and supplementary lighting was supplied when necessary (from mercury vapour lamps), to provide a 16 hour photoperiod. The exception to this were the temperate cereals, wheat and barley which were grown in 16° C. day 13° C. night temperatures.
(§4) After 2-6 weeks in the glasshouse, depending on the time of year, the plants were visually assessed for morphological characteristics. Formulation blanks were used as controls to assess the plants.
(§5) Compound numbers 1, 5 and 7 (of the present invention) were tested against compounds A, B, C and D (compound Nos. 12, 2, 24 and 50 of Table 1 EP No. 0052424) on whole plant screen (2). The compounds were tested of plant growth regulator activity against five species and for various growth effects relevant to plant growth regulation. The structures are set out in FIG. 1.
The plant species used in this screen are presented in Table XII with the leaf stage at which they were sprayed Each chemical was applied at 4000 ppm (4 kg/ha in a 1000 l/ha field volume) using a tracksprayer and a SS8004E (Teejet) nozzle.
as §3, with “day/22°” for “day 22°”, “day/13°” for “day 13°”

Apples = experiment: Intermediate Retardant Test, apples; format: in vivo, Apples (Red Delicious); conditions: 672 h, ~28 days, read-out: Percentage Reduction in Height of Apples (Compared to formulation blank)
Experimental: as §1
as §1, with “in Table XIV. Compounds were” for “in Table VI. Compounds were”, “that test, and presented as” for “that test, presented as”

Rice [3] = experiment: Whole Plant Screen (2), rice; format: in vivo, Rice (Ishikari); conditions: RC, 4000 ppm
Experimental: as §4, §5
(§6) The plant species used in this screen are presented in Table XII with the leaf stage at which they were sprayed Each chemical was applied at 4000 ppm (4 kg/ha in a 1000 l/ha field volume) using a tracksprayer and a SS8004E (Teejet) nozzle. […]

[4] = tested on: plant species of Whole Plant Screen (1) or (2); experiment: Across screen comparison: total retardation relative to paclobutrazol (Whole Plant Screens (1) and (2)); format: in vivo; conditions: for Total Retardation expressed as a percentage of the total retardation caused by paclobutrazol: compounds of EP 0052424, Table XI
From the text: The following Example is a general indicative comparison of compounds from EP No. 0052424 with compounds from the preferred class in the present invention. The compounds have not been side-by-side tested on this Example because of the large numbers involved but the retardant activity can be compared using a standard which has been on each test.
The compounds which are compared in this Example have been tested on one of two tests. These are the Whole Plant Screen (1) and Whole Plant Screen (2) the methods for which are described in Examples 17 and 18 respectively.
An across screen comparison between compounds is made by expressing the total retardation (ie. sum of retardation scores recorded for each species tested) caused by the compound as a percentage of the total retardation caused by the standard in that test. The standard chemical gives a measure of the performance of the test and environmental factors. By expressing the test compound activity as a percentage of the standard compound activity these factors can be eliminated . The same standard has been used in every test and this is paclobutrazol a proprietory growth regulator.

Barley = experiment: Whole Plant Screen (2), barley; format: in vivo, Barley (Atem); conditions: BR, 4000 ppm
Experimental: as §5, §6

Wheat [5] = conditions: WW, 4000 ppm, 2-3 weeks
Experimental: (§7) The compounds were tested for plant growth regulator activity against up to tweleve plant species for various growth effects relevant to plant growth regulation.
(§8) After spray, the plants were grown in a glasshouse with 25° C. day/22° C. night temperatures and supplementary lighting was supplied when necessary (from mercury vapour lamps), to provide a 16 hour photoperiod. The exception to this were the temperate cereals, wheat and barley, which were grown in 16° C. day 13° C. night temperatures
(§9) After 2-3 weeks in the glasshouse, depending on the time of year, the plants were visually assessed for morphological characteristics. Formulations blanks were used as controls to assess the Plants.

Cynosurus cristatus = conditions: CC, 4000 ppm, 2-3 weeks
Experimental: as §7, §8, §9

Tomato = conditions: TO, 4000 ppm, 2-3 weeks
Experimental: as §7, §8, §9

| Compound | height reduction vs blank at 1000 ppm (Spring Barley; side-by-side, Table XV) [%] | height reduction vs blank at 4000 ppm (Spring Barley; side-by-side, Table XV) [%] | Percent reduction in rice plant height vs formulation blank at 1000 ppm (Rice [1]; side-by-side, Table XVI) [%] | Percent reduction in rice plant height vs formulation blank at 4000 ppm (Rice [1]; side-by-side, Table XVI) [%] | percent reduction in plant height vs formulation blank at 1000 ppm (Apples; side-by-side, Table XVII) [%] | percent reduction in plant height vs formulation blank at 4000 ppm (Apples; side-by-side, Table XVII) [%] | Total Retardation expressed as a percentage of the total retardation caused by paclobutrazol [4] | percent reduction in plant height vs formulation blank at 4000 ppm (Apples; Table IX) [%] | further results |
| --- | --- | --- | --- | --- | --- | --- | --- | --- | --- |
| CC(C)(C)C=CC(O)(Cn1cncn1)C(C)(C)C (stereo not shown) [A, reference compound] | 5 | 13 | 4 | 20 | 2 | 14 | 62.5 % of paclobutrazol | – | G = Greening effect (Wheat [2]; side-by-side, Table XIII): 1 (10-30%); I = Interligular or internodal length reduction (Maize; side-by-side, Table XIII): 1 (10-30%); R = Retardation (Maize; side-by-side, Table XIII): 1 (10-30%); T = Tillering or side shooting (Rice [3]; side-by-side, Table XIII): 2 (31-60%); range of activity / superiority in comparison with EP 0052424 compounds ([4]; Tables X and XI, across screen comparison): higher range of activity than the rest of the compounds |
| CC(C)(C)C(O)(C=Cc1ccc(Cl)cc1)Cn1cncn1 (stereo not shown) [B, reference compound] | 8 | 7 | 3 | 11 | 0 | 3 | 43.1 % of paclobutrazol | – | I = Interligular or internodal length reduction (Maize; side-by-side, Table XIII): 1 (10-30%); R = Retardation (Maize; side-by-side, Table XIII): 1 (10-30%); T = Tillering or side shooting (Barley; side-by-side, Table XIII): 1 (10-30%); I = Interligular or internodal length reduction (Rice [3]; side-by-side, Table XIII): 1 (10-30%); R = Retardation (Rice [3]; side-by-side, Table XIII): 1 (10-30%) |
| CC(C)(C)C(O)(C#Cc1ccc(Cl)cc1)Cn1cncn1 (stereo not shown) [C, reference compound] | 4 | 6 | 5 | 13 | 0 | 0 | 7.1 % of paclobutrazol | – | – |
| CCCC#CC(O)(Cn1cncn1)C(C)(C)C (stereo not shown) [Compound 11] | – | – | – | – | – | – | – | – | height reduction vs blank at 1000 ppm (Spring Barley; Table VIII): 24%; height reduction vs blank at 4000 ppm (Spring Barley; Table VIII): 49.4%; Retardation score (1-3) with greening (G), apical damage (A), tillering/side shooting (T) (Wheat [5]): 1 (10-30% retardation); Retardation score (1-3) with greening (G), apical damage (A), tillering/side shooting (T) (Cynosurus cristatus): 1 (10-30% retardation); Retardation score (1-3) with greening (G), apical damage (A), tillering/side shooting (T) (Tomato): 2T |
| CCCC#CC(Cn1cncn1)(OC)C(C)(C)C (stereo not shown) [Compound 12] | – | – | – | – | – | – | – | 33.6 | height reduction vs blank at 1000 ppm (Spring Barley; Table VIII): 2.7%; height reduction vs blank at 4000 ppm (Spring Barley; Table VIII): 12.6%; Percent reduction in rice plant height vs formulation blank at 1000 ppm (Rice [1]; Table VII): 23.8%; Percent reduction in rice plant height vs formulation blank at 4000 ppm (Rice [1]; Table VII): 49.7%; I = Interligular or internodal length reduction (Maize; 2-6 weeks, Table V): 1 (10-30%); R = Retardation (Maize; 2-6 weeks, Table V): 1 (10-30%); percent reduction in plant height vs formulation blank at 1000 ppm (Apples; Table IX): 15.7% |
| CCCC#CC(O)(Cn1cncn1)C(C)(C)CCl (stereo not shown) [Compound 19] | – | – | – | – | – | – | – | 36.6 | – |
| CCCCCC#CC(O)(Cn1cncn1)C(C)(C)CF (stereo not shown) [Compound 20] | – | – | – | – | – | – | – | – | G = Greening effect (Wheat [2]; 2-6 weeks, Table V): 2 (31-60%); T = Tillering or side shooting (Wheat [2]; 2-6 weeks, Table V): 2 (31-60%); I = Interligular or internodal length reduction (Barley; 2-6 weeks, Table V): 1 (10-30%); T = Tillering or side shooting (Rice [3]; 2-6 weeks, Table V): 1 (10-30%) |
| CCCCCCC#CC(O)(Cn1cncn1)C(C)(C)CF (stereo not shown) [Compound 21] | – | – | – | – | – | – | – | 0 | percent reduction in plant height vs formulation blank at 1000 ppm (Apples; Table IX): 10% |
| COC(C)(C)C#CC(O)(Cn1cncn1)C(C)(C)C (stereo not shown) [D, reference compound] | 9 | 13 | 2 | 7 | 0 | 0 | 3.6 % of paclobutrazol | – | – |
